Data: PMC11672801, “Synthesis of Temporin-SHa Retro Analogs with Lysine Addition/Substitution and Antibiotic Conjugation to Enhance Antibacterial, Antifungal, and Anticancer Activities” (Antibiotics, 2024)
Converted amounts (≈) assume the structure as drawn. Read-outs that look alike come from different tables or passages of the source. Where a SMILES comes first, the peptide text is derived from it. [ ]: non-standard residue; d: D form. The star is where a group is joined. Levofloxacinoyl = C[C@H]1COc2c(N3CCN(C)CC3)c(F)cc3c(=O)c(C(=O)*)cn1c23

Tests used:
[1] = system: cancer cells (MCF-7, HeLa); parameters: species or system human
Experimental: The selectivity of action of the analogs against micro-organisms or cancer cells was further evaluated through calculation of their selectivity indexes (SIs). SIs were determined using either the MIC on micro-organisms or IC50 on cancer cells compared to HC50 values, and they are reported in Table 6.

[2] = system: P. aeruginosa (ATCC 10145); assay: Antibacterial broth microdilution MIC assay; assay type: cell-based, Pseudomonas aeruginosa; conditions: >99% inhibition of growth, MH broth, 20-22 h, 37 °C
Experimental: (§1) The antibacterial activity of peptide analogs was tested against different bacterial strains, i.e., Salmonella enterica subsp. enterica serotype Typhimurium or Salmonella typhi (ATCC 14028), Staphylococcus aureus (NCTC 13277), Bacillus subtilis (ATCC 23857), Escherichia coli (ATCC 25922), and Pseudomonas aeruginosa (ATCC 10145). These strains were obtained from the microbial bank of Dr. Panjwani Center for Molecular Medicine and Drug research (PCMD), International Center for Chemical and Biological Sciences (ICCBS), University of Karachi. Colonies of these bacterial strains were grown in respective agar media, then inoculated in Mueller Hinton (MH) broth (Oxoid, UK) and incubated at 37 °C overnight. The peptide solutions were first diluted 1 in 100 (from the stock solution at 20 mM) and then further two-fold dilution in MH broth in a sterile 96-well plate was performed, resulting in 100 µL of broth containing increasing concentrations of analogs. Bacteria in their exponential growth phase were diluted in MH broth, and 100 µL of this suspension was added in each well. […] Then, these plates were incubated at 37 °C for 20–22 h. MIC (Minimum Inhibitory Concentration) values were determined as the concentrations of peptides causing >99% inhibition of bacterial growth.

S. aureus (NCTC 13277) = conditions: >99% inhibition of growth, MH broth, 20-22 h, 37 °C
[3] = system: human cervical cancer (HeLa) cells; assay: cells; assay type: cell-based
Experimental: (§2) Human breast cancer (MCF-7) and human cervical cancer (HeLa) cells were obtained from the cell culture bank of PCMD in ICCBS, University of Karachi. These cells were maintained in Dulbecco’s Modified Eagle Medium (DMEM), supplemented with 10% fetal bovine serum, and incubated at 37 °C and 5% CO2. The antiproliferative activity of the samples was determined by a MTT assay. Briefly, the cells were washed with PBS and trypsinized. After determination of the cell number using Malassez cell counting, 100 µL of the cell suspension were seeded in a 96-well plate at the density of 6000 cells/well and incubated at 37 °C and 5% CO2. After 24 h, the cells were treated with increasing concentrations of analogs. The next day, media was removed and 200 µL of MTT dye (0.5 mg/mL) was added in each well and incubated for 3 h at 37 °C in 5% CO2 incubator. Then, the media was removed and 100 µL of DMSO was added to solubilize formazan crystals. After one minute of shaking, the absorbance was recorded at 540 nm in microplate reader (Multiskan GO, ThermoScientific, Waltham, MA, USA). Finally, the percent inhibition of proliferation was calculated using the following formula: % inhibition of proliferation=O.D of treated well−O.D of media control/O.D of untreated control−O.D of media control×100

[4] = system: Human breast cancer (MCF-7) cells; assay: cells; assay type: cell-based; conditions: 24 h
Experimental: as §2

B. subtilis (ATCC 23857) = assay: Antibacterial broth microdilution MIC assay; assay type: cell-based, Bacillus subtilis; conditions: >99% inhibition of growth, MH broth, 20-22 h, 37 °C
Experimental: as §1

[5] = system: human red blood cells (RBC); assay: Hemolytic assay; assay type: cell-based; conditions: red cells of human, 1 h
Experimental: For the hemolytic assay, fresh human blood (2 mL) was obtained from a healthy donor in EDTA tube while following the protocol of approval from the Independent Ethics Committee of ICCBS (approval number ICCBS/IEC-047-HB-2019/Protocol/1.0). The blood was centrifuged and upper supernatant plasma was removed. The cell pellets were washed with sterile PBS three times. The washed blood cells were then diluted 25 times to make 4% concentration of the initial blood cells. Red blood cells (500 µL) were treated with increasing concentrations of analogs, with triton X-100 at 0.1% being used as positive control giving 100% hemolysis. After 1 h of incubation at 37 °C, tubes were centrifuged at 800 rpm for 5 min to pellet down red blood cells. After centrifugation, 200 µL of supernatant were transferred into a 96 well plate and the absorbance was recorded at 576 nm using a microplate reader (MultiSkan Go, ThermoScientific). Then, the following formula was applied to calculate percent hemolysis: % Hemolysis=O.D of test sample−O.D of PBS control/O.D of Tritox×positive control−O.D of PBS control×100

E. coli (ATCC 25922) = assay: Antibacterial broth microdilution MIC assay; assay type: cell-based, Escherichia coli; conditions: >99% inhibition of growth, MH broth, 20-22 h, 37 °C
Experimental: as §1

C. albicans (ATCC 36082) = assay: microbe, parasite or virus in culture; conditions: ATCC 36082, 24 h
Experimental: Candida albicans (ATCC 36082) was cultured on Sabourad Dextrose Agar (SDA). A single colony was inoculated in Sabouraud Dextrose Broth (SDB) medium and grown overnight at 37 °C while shaking. The next day, the susceptibility of C. albicans was tested using a broth microdilution assay. Peptide analogs were diluted in SDB media by two-fold dilution, resulting in 100 µL of medium containing increasing concentrations of analogs. The overnight culture (turbidity at OD600 = 1) was 1000× diluted in SDB. Then 100 µL of this suspension was added to each well, resulting in a final 200 µL suspension containing 2–4 × 10^5 CFU/mL. The plate was incubated at 37 °C for 24 h. The next day, MIC (Minimum Inhibitory Concentration) values were determined as the concentrations of peptides causing > 99% inhibition of yeast growth.

E. coli = assay: Atomic force microscopy imaging of treated bacteria; assay type: cell-based, Escherichia coli; conditions: 2XMIC, overnight, tapping mode
Experimental: (§3) Different bacteria (S. typhi, E. coli, and P. aeruginosa) adjusted to 2–3 × 10^7 CFU/mL were treated with 2XMIC values of analogs and incubated overnight at 37 °C. The next day, the bacteria were washed, dispersed in sterile pure grade water, dispensed in poly-L-lysine-coated mica slides, and left for air drying. Changes in the morphology of the bacteria were studied with an atomic force microscope (Agilent 5500, Chandler, AZ, USA). The whole analysis was carried out in tapping mode. Images were collected and optimized at a scan velocity of 1–5 µm/s and 512 × 512-line resolution and processed through PicoView 1.2 imaging software.

[6] = Circular dichroism secondary structure analysis (Bestsel) in 20 mM SDS; assay type: physicochemical; conditions: CD, 15 µM peptide in 20 mM SDS, 22 °C
Experimental: The far-ultraviolet circular dichroism (CD) spectra were recorded using a JASCO J-810 spectropolarimeter (Jasco, Tokyo, Japan), with measurements taken in a quartz cuvette with a 10 mm path length. The temperature was kept at 22 °C, and the instrument was calibrated with D-(+)-10-camphorsulfonic acid. Peptides were dissolved in 20 mM SDS to a final concentration of 15 µM. The CD spectra were collected over a wavelength range of 190 to 260 nm with a bandwidth of 2 nm. Each spectrum was recorded with ten consecutive scans at a rate of 50 nm/min, and the baseline was obtained under identical conditions. Secondary structures, i.e., the percentage of alpha-helix and other secondary structures, were quantified from CD data using Bestsel software (https://bestsel.elte.hu/index.php, accessed on 22 October 2024).

P. aeruginosa = assay: Atomic force microscopy imaging of treated bacteria; assay type: cell-based, Pseudomonas aeruginosa; conditions: 2XMIC, overnight, tapping mode
Experimental: as §3

| Structure (SMILES) | IC50 [1] [µM] | MIC S. typhi (ATCC 14028) (S. typhi (ATCC 14028); ATCC 14028) [µM] | MIC [2] [µM] | MIC S. aureus (NCTC 13277) (S. aureus (NCTC 13277)) [µM] | IC50 ([3]; 24 h) [µM] | IC50 [4] [µM] | MIC (B. subtilis (ATCC 23857)) [µM] | HC50 on Human Red Blood Cells (RBCs) [5] [µM] | MIC (E. coli (ATCC 25922)) [µM] | MIC C. albicans (ATCC 36082) (C. albicans (ATCC 36082)) [µM] | MIC S. typhi (ATCC 14028) (S. typhi (ATCC 14028); >99% inhibition of growth, MH broth, 20-22 h, 37 °C) [µM] | AFM morphology of E. coli after treatment (E. coli) | IC50 ([3]; MTT, 24 h exposure, read-out: IC50 on Cervical Cancer (HeLa)) [µM] | Antiparallel (%) [6] [%] | Helix (%) [6] [%] | Others (%) [6] [%] | Parallel (%) [6] [%] | Turn (%) [6] [%] | AFM morphology of P. aeruginosa after treatment (P. aeruginosa) |
| --- | --- | --- | --- | --- | --- | --- | --- | --- | --- | --- | --- | --- | --- | --- | --- | --- | --- | --- | --- |
| CC[C@H](C)[C@H](NC(=O)[C@@H](NC(=O)CNC(=O)[C@H](CCSC)NC(=O)[C@H](CC(C)C)NC(=O)CNC(=O)[C@H](CCCCNC(=O)c1cn2c3c(c(N4CCN(C)CC4)c(F)cc3c1=O)OC[C@@H]2C)NC(=O)[C@H](CC(C)C)NC(=O)[C@@H](N)Cc1ccccc1)C(C)C)C(=O)N[C@H](C)C(=O)N[C@@H](CO)C(=O)N[C@@H](CC(C)C)C(=O)N[C@@H](Cc1ccccc1)C(=O)N[C@@H](CCCCN)C(N)=O [RLFP-2 (5), H-Phe^1-Leu^2-Lys^3(LF)-Gly^4-Leu^5-Met^6-Gly^7-Val^8-Ile^9-D-Ala^10-Ser^11-Leu^12-Phe^13-Lys^14-NH2] (H-FLK(Levofloxacinoyl)GLMGVI[dA]SLFK-NH2) | > 100 | 200 (≈ 373 µg/mL) | >200 | 100 (≈ 187 µg/mL) | > 100 | > 100 | 50 (≈ 93.3 µg/mL) | 25.0 | >200 | >250 |  |  |  |  |  |  |  |  |  |
| CC[C@H](C)[C@H](NC(=O)[C@@H](NC(=O)CNC(=O)[C@H](CCSC)NC(=O)[C@H](CC(C)C)NC(=O)CNC(=O)[C@H](CCCCN)NC(=O)[C@H](CC(C)C)NC(=O)[C@@H](N)Cc1ccccc1)C(C)C)C(=O)N[C@H](C)C(=O)N[C@@H](CO)C(=O)N[C@@H](CC(C)C)C(=O)N[C@@H](Cc1ccccc1)C(=O)N[C@@H](CCCCN)C(N)=O [RSP-1 (3), H-Phe^1-Leu^2-Lys^3-Gly^4-Leu^5-Met^6-Gly^7-Val^8-Ile^9-D-Ala^10-Ser^11-Leu^12-Phe^13-Lys^14-NH2] (H-FLKGLMGVI[dA]SLFK-NH2) |  |  | 50 (≈ 76.1 µg/mL) | 6.25 (≈ 9.52 µg/mL) |  | 42.7 | 1.56 (≈ 2.38 µg/mL) | 51.0 | 25 (≈ 38.1 µg/mL) | 15.6 (≈ 23.8 µg/mL) | 50 (≈ 76.1 µg/mL) | significant damages to the bacteria | 33.5 | 18.2 | 81.8 | 0.00 | 0.00 | 0.00 | significant damages to the bacteria |
